Structures can show the parent of a compound that is named as a salt. Where two headings read alike, the source gives them in different places.

In assay [1] the target is T1, SARS-CoV-2 PLpro (nsp3 1564–1878) (Severe acute respiratory syndrome coronavirus 2, UniProt P0DTD1). The assay can be described thus: biochemical. The settings on record: low concentration screen, read-out: % of control remaining. The arrangement: FRET-quenched peptide (Pro3) cleavage by PLpro, 10 min pre-incubation, slope over 20 min, normalised to no-compound control.

Assay [2] has as its target T1, SARS-CoV-2 PLpro (nsp3 1564–1878). The assay can be described thus: biochemical. The settings on record: high concentration screen, read-out: % of control remaining. The arrangement: FRET-quenched peptide (Pro3) cleavage by PLpro, 10 min pre-incubation, slope over 20 min, normalised to no-compound control.

Take `CCN1CCN(c2ccc(Nc3cc(N(C)C(=O)Nc4c(Cl)c(OC)cc(OC)c4Cl)ncn3)cc2)CC1` [BGJ398 (NVP-BGJ398)]: the remaining activity at 1.25 µM in assay [1] (Well no.=5140) is 97%. Besides, the remaining activity at 3.75 µM in assay [2] (Well no.=5140) is 99.3%.
On to `CC(C)C(C(=O)O)N1C(=O)/C(=C\c2ccc(Br)cc2)SC1=S` (stereo not shown) [BH3I-1], for which the remaining activity at 1.25 µM in assay [1] (Well no.=6586) was 98.6%. Further, the remaining activity at 3.75 µM in assay [2] (Well no.=6586) turned out to be 99.7%.
Turning to `O=c1[nH]nc(Sc2ncc([N+](=O)[O-])s2)n1-c1ccc2c(c1)OCCO2` [BI 78D3 - 4-(2,3-Dihydro-1,4-benzodioxin-6-yl)-2,4-dihydro-5-[(5-nitro-2-thiazolyl)thio]-3H-1,2,4-triazol-3-one], the remaining activity at 1.25 µM in assay [1] (Well no.=2684) turned out to be 95.6%. Further, the remaining activity at 3.75 µM in assay [2] (Well no.=2684) was 97.1%.
As to `O=c1[nH]nc(Sc2ncc([N+](=O)[O-])s2)n1-c1ccc2c(c1)OCCO2` [BI-78D3], the remaining activity at 1.25 µM in assay [1] (Well no.=6058) was found to be 101%. In addition, the remaining activity at 3.75 µM in assay [2] (Well no.=6058) turned out to be 96.9%.
As for `CC(C)CCN1c2nc(Nc3cc(F)c(O)c(F)c3)ncc2N(C)C(=O)C1C` (stereo not shown) [BI-D1870], the remaining activity at 1.25 µM in assay [1] (Well no.=2787) stood at 101%. The remaining activity at 3.75 µM in assay [2] (Well no.=2787) is 104%.
Turning to `C/C(=C\C(=O)Nc1ccccc1C(=O)O)c1ccc2ccccc2c1` [BIBR 1532], the remaining activity at 1.25 µM in assay [1] (Well no.=5095) came to 103%. Also, in assay [2] (Well no.=5095), the remaining activity at 3.75 µM came to 106%.
`CN1CCC(Nc2ncc3ncnc(Nc4ccc(F)c(Cl)c4)c3n2)CC1` [BIBX 1382 dihydrochloride - N8-(3-Chloro-4-fluorophenyl)-N2-(1-methyl-4-piperidinyl)-pyrimido[5,4-d]pyrimidine-2,8-diamine dihydrochloride]: the remaining activity at 1.25 µM in assay [1] (Well no.=2528) amounted to 96.6%. In assay [2] (Well no.=2528), the remaining activity at 3.75 µM was determined as 91%.
`COc1c(C)cnc(Cn2cnc3c(Cl)nc(N)nc32)c1C` [BIIB021]: the remaining activity at 1.25 µM in assay [1] (Well no.=5091) was found to be 104%. Further, the remaining activity at 3.75 µM in assay [2] (Well no.=5091) was 107%.
With `CC(=O)O/N=C1/C(c2c(O)[nH]c3cc(Br)ccc23)=Nc2ccccc21` [BIO-Acetoxime], the remaining activity at 1.25 µM in assay [1] (Well no.=5822) was 96%. For the same compound, the remaining activity at 3.75 µM in assay [2] (Well no.=5822) amounted to 93.6%.
As to `Cc1ccc(-n2nc(C(C)(C)C)cc2NC(=O)Nc2ccc(OCCN3CCOCC3)c3ccccc23)cc1` [BIRB 796 (Doramapimod)], the remaining activity at 1.25 µM in assay [1] (Well no.=5264) stood at 89.3%. In assay [2] (Well no.=5264), the remaining activity at 3.75 µM is 89.7%.
As to `COc1cc2nc(N3CCCN(C)CC3)nc(NC3CCN(Cc4ccccc4)CC3)c2cc1OC` [BIX01294], the remaining activity at 1.25 µM in assay [1] (Well no.=5180) was found to be 102%. Also, in assay [2] (Well no.=5180), the remaining activity at 3.75 µM came out at 99.6%.
Regarding `CN(C)Cc1cccc(N/C(=C2\C(=O)Nc3cc(C(N)=O)ccc32)c2ccccc2)c1` [BIX 02188], the remaining activity at 1.25 µM in assay [1] (Well no.=5283) was 96.6%. Also, the remaining activity at 3.75 µM in assay [2] (Well no.=5283) was 93.8%.
Regarding `COc1ccc2c(c1)c(CC(=O)N1CCOCC1)c(C)n2C(=O)c1ccc(Cl)cc1` [BML-190], the remaining activity at 1.25 µM in assay [1] (Well no.=4328) amounted to 97.5%; in assay [1] (Well no.=8379), 96.7%. Besides, the remaining activity at 3.75 µM in assay [2] (Well no.=4328) turned out to be 92.3%; in assay [2] (Well no.=8379) it was 97.9%.
As to `Nc1ccccc1NC(=O)CCCCCCC(=O)Nc1ccccc1` [BML-210], in assay [1] (Well no.=5799), the remaining activity at 1.25 µM came to 105%. For the same compound, the remaining activity at 3.75 µM in assay [2] (Well no.=5799) came to 104%.
On to `CCOc1ccn(-c2ccc(F)cc2)c(=O)c1C(=O)Nc1ccc(Oc2ccnc(N)c2Cl)c(F)c1` [BMS 777607], for which the remaining activity at 1.25 µM in assay [1] (Well no.=5297) was 94.1%. Also, the remaining activity at 3.75 µM in assay [2] (Well no.=5297) came to 90.4%.
Take `Nc1nccc(Oc2ccc(NC(=O)c3c[nH]cc(-c4ccc(F)cc4)c3=O)cc2F)c1Cl` [BMS 794833]: in assay [1] (Well no.=5150), the remaining activity at 1.25 µM was determined as 100%. Also, in assay [2] (Well no.=5150), the remaining activity at 3.75 µM amounted to 96.4%.
Turning to `COc1cc(OCc2cccc(-c3ccccc3)c2C)cc(OC)c1CN1CCCC[C@H]1C(=O)O` [BMS-1], the remaining activity at 1.25 µM in assay [1] (Well no.=7780) came out at 98.8%; in assay [1] (Well no.=8163), 105%. The remaining activity at 3.75 µM in assay [2] (Well no.=7780) is 96.2%; in assay [2] (Well no.=8163), 100%.
For the compound `O=C(Nc1ncc(-c2cc(C(F)F)nn2-c2c(Cl)cccc2Cl)s1)C1CC1` [BMS-3], the remaining activity at 1.25 µM in assay [1] (Well no.=3039) came out at 95.8%. Also, the remaining activity at 3.75 µM in assay [2] (Well no.=3039) was 96.4%.
Turning to `CC(C)C(=O)Nc1ncc(-c2cc(C(F)F)nn2-c2c(Cl)cccc2Cl)s1` [BMS-5], the remaining activity at 1.25 µM in assay [1] (Well no.=2705) was 100%. In addition, the remaining activity at 3.75 µM in assay [2] (Well no.=2705) came out at 96.9%.
As for `COc1nc(OCc2cccc(-c3ccccc3)c2C)ccc1CNCCNC(C)=O` [BMS-202], the remaining activity at 1.25 µM was 100% in assay [1] (Well no.=8469) and 96.5% in assay [1] (Well no.=8694). For the same compound, the results for the remaining activity at 3.75 µM in assay [2] (Well no.=8469) and in assay [2] (Well no.=8694) were 95.5% and 93.7%, respectively.
In the case of `Cc1c(COc2cc(OCc3cccc(C#N)c3)c(CN3C[C@H](O)C[C@@H]3C(=O)O)cc2Cl)cccc1-c1ccc2c(c1)OCCO2` [BMS-1166], the remaining activity at 1.25 µM in assay [1] (Well no.=8310) turned out to be 96.7%. Further, the remaining activity at 3.75 µM in assay [2] (Well no.=8310) stood at 96.4%.
As for `CC1(C)CC=C(c2cnc3ccccc3c2)c2cc(C(=O)Nc3ccc(C(=O)O)cc3)ccc21` [BMS-195614], in assay [1] (Well no.=5458), the remaining activity at 1.25 µM was determined as 98.2%. For the same compound, in assay [2] (Well no.=5458), the remaining activity at 3.75 µM was found to be 103%.
As for `CCCCOc1c(C(=O)c2c(F)cc(C)cc2F)c[nH]c2nncc1-2` [BMS-265246], the remaining activity at 1.25 µM in assay [1] (Well no.=5010) stood at 95.8%. Besides, in assay [2] (Well no.=5010), the remaining activity at 3.75 µM was found to be 96.6%.
As to `COc1ccnc2[nH]cc(C(=O)C(=O)N3CCN(C(=O)c4ccccc4)C[C@H]3C)c12` [BMS-378806], the remaining activity at 1.25 µM in assay [1] (Well no.=8420) was 96.7%. In addition, in assay [2] (Well no.=8420), the remaining activity at 3.75 µM came out at 94.2%.
Take `Cn1c(N2CCCCS2(=O)=O)nc(C(=O)NCc2ccc(F)cc2)c(O)c1=O` [BMS-707035]: the remaining activity at 1.25 µM in assay [1] (Well no.=5193) was determined as 105%. For the same compound, in assay [2] (Well no.=5193), the remaining activity at 3.75 µM is 106%.
Consider `CC(=O)N[C@@H]1C[C@H](NC(C)(C)C)CC[C@@H]1N1CC[C@H](Nc2ncnc3cc(C(C)(C)C)nn23)C1=O` [BMS-813160], for which the remaining activity at 1.25 µM in assay [1] (Well no.=8217) came to 103%. The remaining activity at 3.75 µM in assay [2] (Well no.=8217) worked out at 100%.
For the compound `COc1ccccc1N1CCN(CCN2C(=O)CC3(CCCC3)CC2=O)CC1` [BMY 7378 dihydrochloride], the remaining activity at 1.25 µM in assay [1] (Well no.=229) turned out to be 98.4%. Also, the remaining activity at 3.75 µM in assay [2] (Well no.=229) was found to be 100%.
For the compound `COc1ccccc1N1CCN(CCN2C(=O)CC3(CCCC3)CC2=O)CC1` [BMY 7378], in assay [1] (Well no.=5346), the remaining activity at 1.25 µM was 91.4%. In addition, the remaining activity at 3.75 µM in assay [2] (Well no.=5346) stood at 88.7%.
`CCCc1cc(=O)oc2c(C(=O)N3CCCc4ccccc43)c(OC)cc(OC)c12` [BNS-22]: the remaining activity at 1.25 µM in assay [1] (Well no.=5907) stood at 101%. For the same compound, the remaining activity at 3.75 µM in assay [2] (Well no.=5907) came out at 98.7%.

These data come from article PMC8286840, “Identifying SARS-CoV-2 antiviral compounds by screening for small molecule inhibitors of Nsp3 papain-like protease” (Biochemical Journal, 2021).
